One compound from patent publication US5840697A, “Peptide inhibitors of calmodulin” (Torrey Pines Institute for Molecular Studies, priority 1996, dated 1998) can be followed below.

For one experiment, the target named is calmodulin (Homo sapiens, UniProt P0DP23). Description: calcium-dependent phosphodiesterase assay (calmodulin activity). The experiment is classed as biochemical. In a few lines: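 Calmodulin (5 units) stimulation of Ca2+-activated phosphodiesterase measured by coupling cAMP→5'-AMP to 5'-nucleotidase, with released Pi read at 660 nm after ammonium molybdate reaction.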

Experiment [1] deals with normal rat kidney (NRK) cells. The experiment is described as follows: DNA synthesis ([3H]-thymidine incorporation) in cell culture. The experiment is classed as cell-based. To be noted: added at 5 hr. The procedure:
Following the methods described in Lopez-Girona et al., Cell Calcium, 18:30-40 (1995), which is incorporated herein by reference, the effect of calmodulin inhibitory peptides on DNA synthesis was investigated. Specifically, peptides were added to culture media and assessed for their ability to inhibit the progression of normal rat kidney (NRK) cells into the S phase of the cell cycle; the DNA synthesis phase into the cell growth cycle. Such inhibition has been shown for existing anti-calmodulin drugs such as W13.
NRK cells were made quiescent by growing them to confluence in Dulbecco's minimum essential medium supplemented with 5% fetal calf serum (FCS), and then kept for 3-4 days in the same medium but with only 0.5% FCS. To allow them to re-enter the cell cycle, quiescent cells were trypsinized and subcultured at a lower density in fresh medium supplemented with 5% FCS.
DNA synthesis was analyzed by the measurement of [^3 H]-thymidine into whole cell DNA. NRK cells (10^5 per 35 mm plate) were pulse labeled for 1 hr with [methyl-^3 H]-thymidine (5 Ci/mmol) at 4 μCi/ml in Dulbecco's minimum essential medium supplemented with 5% FCS. Precipitation and solubilization of DNA was carried out as described in Cripps-Wolfman et al., J. Biol. Chem., 264:19478-19486 (1989), which is incorporated herein by reference.
The NRK cells stimulated to proliferate by addition of 5% FCS enter synchronously into the cell cycle and start the S phase after 12 hr reaching a maximum between 18 to 20 hr. The peptides were added at 5 hr (time at which the cells have already reenter the G1 phase). […] Similar results were found between the (D)-amino acid peptides and their (L)-counterpart.

Where two headings read alike, the source gives them in different places. Square brackets hold non-standard residues; d marks the D form. Peptide text beside a SMILES is read from it.

On to `CC[C@@H](C)[C@@H](NC(=O)[C@@H](CCCNC(=N)N)NC(=O)[C@@H](Cc1c[nH]c2ccccc12)NC(=O)[C@@H](CC(C)C)NC(C)=O)C(=O)N[C@H](CC(C)C)C(=O)N[C@H](Cc1c[nH]c2ccccc12)C(N)=O` [Ac-(D)Leu-(D)Trp-(D)Arg-(D)Ile-(D)Leu-(D)Trp-NH2] (Ac-[dL][dW][dR][dI][dL][dW]-NH2), for which the IC50 on calmodulin (Table I, assayed at 75, 50 and 12.5 μM, average of repeated assays, read-out: Average IC50) was found to be 5.4 µM; at calmodulin (Table III, in the presence of calmodulin, read-out: IC50 (μM) for calmodulin), 7.1 µM. In addition, on calmodulin (comparison of IC50 for phosphodiesterase with IC50 for calmodulin), the SPECIFICITY is given as 17. The “% DNA SYNTHESIS” value is on record as 59% in experiment [1] (7.5 μM) and 25% in experiment [1] (15 μM).
